Laboratory results reported in ChEMBL document CHEMBL1153852, “Steroidal lactones as inhibitors of 17beta-hydroxysteroid dehydrogenase type 5: chemical synthesis, enzyme inhibitory activity, and assessment of estrogenic and androgenic activities” (Eur J Med Chem, 2009).

Experiments:
[1] = target: T1, Androgen receptor (Rattus norvegicus) (UniProt P15207); assay: Binding affinity to rat ventral prostate androgen receptor at 1 uM; format: tissue-based; details: Prostate gland
T1 sequence (whole entry): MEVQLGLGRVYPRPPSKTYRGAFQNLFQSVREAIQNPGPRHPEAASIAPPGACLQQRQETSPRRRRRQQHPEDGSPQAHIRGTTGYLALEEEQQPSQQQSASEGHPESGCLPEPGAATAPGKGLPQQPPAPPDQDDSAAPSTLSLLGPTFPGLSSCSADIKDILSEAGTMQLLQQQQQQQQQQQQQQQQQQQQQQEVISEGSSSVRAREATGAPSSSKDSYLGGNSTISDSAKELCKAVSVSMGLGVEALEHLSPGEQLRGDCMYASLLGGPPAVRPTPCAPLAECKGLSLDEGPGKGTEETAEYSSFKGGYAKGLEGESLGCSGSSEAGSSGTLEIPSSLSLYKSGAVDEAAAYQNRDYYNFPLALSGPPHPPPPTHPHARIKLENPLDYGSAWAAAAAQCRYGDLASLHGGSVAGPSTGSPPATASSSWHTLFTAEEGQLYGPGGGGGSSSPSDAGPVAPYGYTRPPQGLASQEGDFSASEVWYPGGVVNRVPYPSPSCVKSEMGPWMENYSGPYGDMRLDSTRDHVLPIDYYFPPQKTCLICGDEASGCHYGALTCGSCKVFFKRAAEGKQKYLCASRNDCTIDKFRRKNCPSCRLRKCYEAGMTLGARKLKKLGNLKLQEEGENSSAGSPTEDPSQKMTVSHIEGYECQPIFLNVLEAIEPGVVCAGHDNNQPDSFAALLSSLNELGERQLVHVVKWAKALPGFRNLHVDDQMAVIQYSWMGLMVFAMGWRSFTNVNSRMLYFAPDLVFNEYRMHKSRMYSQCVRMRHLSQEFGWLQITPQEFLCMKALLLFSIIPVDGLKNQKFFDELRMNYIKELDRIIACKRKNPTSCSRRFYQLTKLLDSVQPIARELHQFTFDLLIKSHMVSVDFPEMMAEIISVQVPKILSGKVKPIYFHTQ

[2] = target: T2, Estrogen receptor (Rattus norvegicus) (UniProt P06211); assay: Binding affinity to rat uterus estrogen receptor at 10 uM
T2 sequence (whole entry): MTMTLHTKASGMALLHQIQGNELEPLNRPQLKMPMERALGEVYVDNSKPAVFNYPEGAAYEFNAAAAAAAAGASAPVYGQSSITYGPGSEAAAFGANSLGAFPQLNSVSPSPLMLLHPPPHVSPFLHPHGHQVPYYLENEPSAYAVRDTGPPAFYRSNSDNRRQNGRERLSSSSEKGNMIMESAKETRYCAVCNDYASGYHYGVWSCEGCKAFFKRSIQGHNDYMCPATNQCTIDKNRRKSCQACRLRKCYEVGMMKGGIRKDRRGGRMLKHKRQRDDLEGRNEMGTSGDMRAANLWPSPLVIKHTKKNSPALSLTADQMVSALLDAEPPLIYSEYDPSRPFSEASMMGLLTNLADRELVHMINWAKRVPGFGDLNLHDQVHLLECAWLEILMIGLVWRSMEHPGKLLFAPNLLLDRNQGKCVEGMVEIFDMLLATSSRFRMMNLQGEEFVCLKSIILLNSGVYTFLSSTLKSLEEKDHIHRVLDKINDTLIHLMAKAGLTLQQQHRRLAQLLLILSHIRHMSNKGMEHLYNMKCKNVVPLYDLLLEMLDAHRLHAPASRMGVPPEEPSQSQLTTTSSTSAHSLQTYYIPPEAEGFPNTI

[3] = target: T3, Progesterone receptor (Rattus norvegicus) (UniProt Q63449); assay: Binding affinity to rat uterus progesterone receptor at 0.1 uM
T3 sequence (whole entry): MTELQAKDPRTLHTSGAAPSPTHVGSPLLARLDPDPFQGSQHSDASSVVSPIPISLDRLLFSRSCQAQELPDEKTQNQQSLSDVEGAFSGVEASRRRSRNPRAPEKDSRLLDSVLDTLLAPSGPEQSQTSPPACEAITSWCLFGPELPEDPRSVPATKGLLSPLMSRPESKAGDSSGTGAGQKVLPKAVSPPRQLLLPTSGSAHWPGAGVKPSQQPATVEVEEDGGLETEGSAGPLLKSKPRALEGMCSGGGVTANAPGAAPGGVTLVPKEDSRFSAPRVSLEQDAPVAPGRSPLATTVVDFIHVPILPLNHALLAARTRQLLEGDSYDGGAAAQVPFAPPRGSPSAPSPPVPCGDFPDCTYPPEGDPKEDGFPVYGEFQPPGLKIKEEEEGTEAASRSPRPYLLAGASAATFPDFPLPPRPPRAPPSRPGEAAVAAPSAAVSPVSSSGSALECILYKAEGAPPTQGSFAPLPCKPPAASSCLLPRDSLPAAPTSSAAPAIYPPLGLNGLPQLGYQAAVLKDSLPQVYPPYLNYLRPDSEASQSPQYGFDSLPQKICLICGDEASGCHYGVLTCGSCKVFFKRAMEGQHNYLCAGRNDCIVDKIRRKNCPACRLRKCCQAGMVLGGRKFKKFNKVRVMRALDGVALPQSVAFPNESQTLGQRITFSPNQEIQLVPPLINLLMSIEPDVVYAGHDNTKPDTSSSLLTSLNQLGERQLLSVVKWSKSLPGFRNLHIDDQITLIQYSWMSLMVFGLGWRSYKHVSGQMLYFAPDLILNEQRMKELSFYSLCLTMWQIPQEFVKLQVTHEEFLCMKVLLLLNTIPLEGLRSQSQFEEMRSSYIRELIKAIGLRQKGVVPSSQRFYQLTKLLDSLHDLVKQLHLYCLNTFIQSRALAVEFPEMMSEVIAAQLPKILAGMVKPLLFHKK

Row | Activity [2] [%] | Activity [3] [%] | Structure (SMILES) | Activity [1] [%]
1 |  |  | CC1(C)CC[C@@]2(CC[C@H]3[C@@H]4CCc5ccccc5[C@H]4CC[C@@]32C)OC1=O | 0
2 | 80 | 11 | CC1(C)CC[C@@]2(CC[C@H]3[C@@H]4CCc5cc(O)ccc5[C@H]4CC[C@@]32C)OC1=O | 
